Data as given in US8198290B2, “Methoxatin derivatives” (Berry and Associates, Inc., priority 2009, dated 2012).
“And” between values parts separate entries of the source, which are not always exact repeats. Equal entries are not always repeated.

Target: T1, soluble glucose dehydrogenase (GDH) (Acinetobacter calcoaceticus, UniProt P13650)
T1 sequence (P13650 25-478): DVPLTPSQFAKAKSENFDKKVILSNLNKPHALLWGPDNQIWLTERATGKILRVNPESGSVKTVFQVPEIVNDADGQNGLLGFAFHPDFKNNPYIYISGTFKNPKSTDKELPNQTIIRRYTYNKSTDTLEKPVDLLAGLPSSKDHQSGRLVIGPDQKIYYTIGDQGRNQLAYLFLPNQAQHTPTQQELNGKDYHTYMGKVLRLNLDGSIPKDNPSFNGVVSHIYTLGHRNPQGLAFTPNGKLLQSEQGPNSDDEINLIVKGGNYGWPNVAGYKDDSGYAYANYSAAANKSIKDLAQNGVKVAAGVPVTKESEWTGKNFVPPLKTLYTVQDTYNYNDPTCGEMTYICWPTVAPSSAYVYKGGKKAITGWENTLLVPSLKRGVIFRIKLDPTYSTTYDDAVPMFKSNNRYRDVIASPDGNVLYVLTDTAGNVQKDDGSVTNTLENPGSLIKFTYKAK
Assay: GDH assay: coenzyme activity relative to native methoxatin
Type: biochemical
Design: concentration or dose not given beside the values
Conditions: coenzyme activity expressed as a percentage of the methoxatin sample
Description: The coenzyme activity of several compounds relative to native methoxatin was determined with a published assay that utilizes soluble glucose dehydrogenase (GDH) from Acinetobactercalcoaceticus. (Misset-Smits et al., Methods in Enzymol., 280, 89-98 (1997)).

Row | Structure (SMILES) | Relative Activity in GDH Assay
1 | C=CCCCONC(=O)c1cc(C(=O)O)c2c(n1)C(=O)C(=O)c1cc(C(=O)O)[nH]c1-2 [Compound 5, 4,5-Dioxo-7-((pent-4-en-1-yloxy)carbamoyl)-4,5-dihydro-1H-pyrrolo[2,3-f]quinoline-2,9-dicarboxylic acid] | 40% and 45%
2 | [N-]=[N+]=NCCOCCOCCOCCONC(=O)c1cc(C(=O)O)c2c(n1)C(=O)C(=O)c1cc(C(=O)O)[nH]c1-2 [Compound 7, 7-(((11-Azido-3,6,9-trioxaundecyl)oxy)carbamoyl)-4,5-dioxo-4,5-dihydro-1H-pyrrolo[2,3-f]quinoline-2,9-dicarboxylic acid] | 45% and 40%
3 | O=C(/C=C/c1cn([C@H]2C[C@H](O)[C@@H](CO)O2)c(=O)[nH]c1=O)NCCCCCCNC(=O)c1ccc(C(=O)NCCOCCOCCOCCONC(=O)c2cc(C(=O)O)c3c(n2)C(=O)C(=O)c2cc(C(=O)O)[nH]c2-3)c(P(=O)(c2ccccc2)c2ccccc2)c1 [Compound 15, 7-(((1-(2-(diphenylphosphoryl)-4-((6-((E)-3-(1-((2R,4S,5R)-4-hydroxy-5-(hydroxymethyl)tetrahydrofuran-2-yl)-2,4-dioxo-1,2,3,4-tetrahydropyrimidin-5-yl)acrylamido)hexyl)carbamoyl)phenyl)-1-oxo-5,8,11-trioxa-2-azatridecan-13-yl)oxy)carbamoyl)-4,5-dioxo-4,5-dihydro-1H-pyrrolo[2,3-f]quinoline-2,9-dicarboxylic acid] | 6%
4 | O=C(O)c1cc(C(=O)O)c2c(n1)C(=O)C(=O)c1cc(C(=O)O)[nH]c1-2 [Methoxatin] | 100%
